Assay results from patent publication US20090226367A1, “COMPOSITIONS COMPRISING AN ANTI-CA125 ANTIBODY AND A CYTOTOXIC COMPOUND AND THEIR USE FOR THE TREATMENT OF CANCER” (priority 2005, published 2009).

Tests used:
[1] = nude mice; cited from earlier work
[2] = test system: OVCAR-3 subcutaneous tumors; assay: subcutaneous OVCAR-3 xenograft model, tumor growth; type: in vivo, NCr nu/nu mice; conditions: for Tumor Regression (number of animals): groups of 8 mice
Procedure: Model of Human Cancer: A subcutaneous OVCAR-3 xenograft model was used.
Animals: Female NCr nu/nu (“nude”) mice (Taconic Farms, Germantown, N.Y.) 6-7 weeks old were used for all studies. All animals were housed in sterile micro-isolators, and were given autoclaved food and water ad libitum.
OVCAR-3 cells were serially propagated in vivo 3 times within the peritoneal cavities of NCr nu/nu mice, followed by subcutaneous implantation in the flank of the mice. […] Mice were injected with 0.2 ml volume of the cell suspension for a final dose of 3×10^6 cells. Beginning approximately 10 days post-implantation, palpable tumors were measured with electronic calipers (Fowler Instruments, Newton, Mass.) across two perpendicular dimensions. Mice were randomly sorted into groups of eight based on tumor volume. […] Tumor measurements and observations were recorded twice a week. Tumor volume was calculated using the standard formula (Length×Width^2)×0.5.
Control groups consisted of mice injected with 0.9% sodium chloride alone. […] Tumors were measured two times per week. Mice were sacrificed when the tumor volume was greater than 10% of their body weight.
Tumor volumes were compared by Mann-Whitney analysis using Prizm software (GraphPad Software, Inc.). Regression was defined as beginning when a tumor reached <50% of its starting volume and ending when the tumor reached >50% of its initial volume. Partial regression (PR) was defined as when a tumor decreased by 50% or more in volume for at least 7 days, and then later regrew. Complete regression (CR) was defined as when a tumor disappeared for at least 7 days.

[3] = paclitaxel 10 mg/kg weekly for three weeks (q3d7)

CC(=O)O[C@H]1C(=O)[C@@]2(C)[C@H]([C@H](OC(=O)c3ccccc3)[C@]3(O)C[C@H](OC(=O)[C@H](O)[C@@H](NC(=O)c4ccccc4)c4ccccc4)C(C)=C1C3(C)C)[C@]1(OC(C)=O)CO[C@@H]1C[C@@H]2O [Paclitaxel, paclitaxel]
MTD [1]: > 30 mg/kg | % T/C ([2]; paclitaxel 10 mg/kg single dose (day 0), day 40, relative to saline control): 58% | Tumor Regression (number of animals) ([2]; paclitaxel 10 mg/kg single dose (day 0)): no animals had observable regression of tumors | Duration (days) of tumor regression [2, 3]: 14 days | PR (partial regression, number of animals) [2, 3]: 1 | % T/C ([2]; paclitaxel 10 mg/kg weekly for three weeks (q3d7), day 40): 29% | Tumor Regression (number of animals) [2, 3]: 1 | animals demonstrating regression of tumors ([2]; three weekly treatments with 10 mg/kg paclitaxel): 10%
